Assay results as given in patent US20240139211A1, “METHODS AND COMPOSITIONS FOR TREATING AMYOTROPHIC LATERAL SCLEROSIS” (Amylyx Pharmaceuticals, Inc., priority 2022, published 2024).
Read-outs that look alike come from different tables or passages of the source.

What was measured:
BSEP [1] = target: T1, BSEP (Homo sapiens, UniProt O95342); test: Inhibitor of BSEP; conditions: for Inhibition of BSEP / Inhibitor of BSEP: two concentrations per test article
OATP1B1 [2] = target: T2, OATP1B1 (Homo sapiens, UniProt Q9Y6L6); test: Substrate of OATP1B1, uptake in HEK293 cells
From the text: (§1) Vector-transfected HEK cells were used as a control.

MATE1 [3] = target: T3, MATE1 (Homo sapiens, UniProt Q96FL8); test: Substrate of MATE1, uptake in HEK293 cells
T3 sequence (Q96FL8 1-570): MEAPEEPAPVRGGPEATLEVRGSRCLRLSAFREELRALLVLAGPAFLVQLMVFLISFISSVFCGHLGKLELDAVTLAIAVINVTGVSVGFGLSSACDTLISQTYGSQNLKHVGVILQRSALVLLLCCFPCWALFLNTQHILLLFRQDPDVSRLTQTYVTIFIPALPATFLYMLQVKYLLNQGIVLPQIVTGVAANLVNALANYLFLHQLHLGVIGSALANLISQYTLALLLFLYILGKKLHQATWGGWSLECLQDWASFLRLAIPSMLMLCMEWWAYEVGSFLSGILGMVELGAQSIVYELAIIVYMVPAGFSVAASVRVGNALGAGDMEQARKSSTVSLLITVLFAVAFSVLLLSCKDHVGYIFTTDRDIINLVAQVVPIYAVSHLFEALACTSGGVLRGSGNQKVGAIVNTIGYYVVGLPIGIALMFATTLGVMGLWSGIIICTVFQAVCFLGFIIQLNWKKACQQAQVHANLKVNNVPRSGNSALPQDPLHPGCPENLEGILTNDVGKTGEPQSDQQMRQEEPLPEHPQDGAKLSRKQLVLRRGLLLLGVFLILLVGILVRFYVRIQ
From the text: as §1

P-gp = P-gp (Homo sapiens, UniProt P08183); test: Substrate of P-gp (Caco-2 cells, selective inhibitors)
human hepatocytes = test: Stability of test articles in hepatocyte cultures; conditions: two concentrations
CYP3A4 mRNA = test: CYP3A4 gene expression induction in hepatocyte cultures; conditions: gene expression and enzyme activity, three donors
OAT1 = target: T4, OAT1 (Homo sapiens, UniProt Q4U2R8); test: Inhibitor of OAT1, probe substrate uptake; conditions: for Inhibition of OAT1 / Inhibitor of OAT1: two concentrations per test article
T4 sequence (Q4U2R8 1-563): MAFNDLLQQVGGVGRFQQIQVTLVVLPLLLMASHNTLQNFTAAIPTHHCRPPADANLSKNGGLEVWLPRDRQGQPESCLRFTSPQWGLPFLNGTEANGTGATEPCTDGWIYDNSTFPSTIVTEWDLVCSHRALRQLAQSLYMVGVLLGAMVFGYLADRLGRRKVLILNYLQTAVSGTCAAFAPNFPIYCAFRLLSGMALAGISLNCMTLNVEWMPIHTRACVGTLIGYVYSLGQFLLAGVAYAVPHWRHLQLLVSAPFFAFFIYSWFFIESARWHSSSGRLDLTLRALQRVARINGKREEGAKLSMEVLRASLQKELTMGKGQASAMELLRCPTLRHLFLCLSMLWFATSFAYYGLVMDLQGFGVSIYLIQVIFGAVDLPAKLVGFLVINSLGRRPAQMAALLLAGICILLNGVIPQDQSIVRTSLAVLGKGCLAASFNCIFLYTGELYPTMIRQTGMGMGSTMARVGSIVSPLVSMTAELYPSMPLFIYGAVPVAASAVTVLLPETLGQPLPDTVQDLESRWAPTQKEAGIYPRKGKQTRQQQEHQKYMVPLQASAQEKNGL

CYP1A2 mRNA = test: CYP1A2 gene expression induction in hepatocyte cultures
BSEP [4] = target: T1, BSEP; test: Substrate of BSEP; conditions: test article 1 and 10 μM
OAT3 = target: T5, OAT3 (Homo sapiens, UniProt Q8TCC7); test: Inhibitor of OAT3, probe substrate uptake; conditions: for Inhibition of OAT3 / Inhibitor of OAT3: two concentrations per test article; for potency estimated from few doses: read-out: Estimated IC50, OAT3
T5 sequence (Q8TCC7 1-542): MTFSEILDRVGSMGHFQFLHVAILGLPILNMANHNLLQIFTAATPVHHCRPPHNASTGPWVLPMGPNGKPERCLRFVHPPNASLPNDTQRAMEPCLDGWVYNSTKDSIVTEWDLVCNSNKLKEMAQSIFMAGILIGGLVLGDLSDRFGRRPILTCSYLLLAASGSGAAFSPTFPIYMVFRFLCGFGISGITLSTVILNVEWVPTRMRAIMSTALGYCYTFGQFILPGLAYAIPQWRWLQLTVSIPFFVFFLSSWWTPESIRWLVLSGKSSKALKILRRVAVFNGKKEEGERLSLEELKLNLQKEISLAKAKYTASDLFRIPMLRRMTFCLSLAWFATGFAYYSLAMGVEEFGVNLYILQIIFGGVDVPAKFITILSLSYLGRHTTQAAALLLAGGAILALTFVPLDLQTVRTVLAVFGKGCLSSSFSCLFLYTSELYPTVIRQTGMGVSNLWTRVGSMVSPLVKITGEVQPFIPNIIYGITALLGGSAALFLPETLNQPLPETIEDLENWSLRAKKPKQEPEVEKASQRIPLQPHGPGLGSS

MATE1 [5] = target: T3, MATE1; test: Inhibitor of MATE1, probe substrate uptake; conditions: for Inhibition of MATE1 / Inhibitor of MATE1: two concentrations per test article; for potency estimated from few doses: read-out: Estimated IC50, MATE1
OATP1B1 [6] = target: T2, OATP1B1; test: Inhibitor of OATP1B1, probe substrate uptake; conditions: for potency estimated from few doses: read-out: Estimated IC50, OATP1B1; for Inhibition of OATP1B1 / Inhibitor of OATP1B1: two concentrations per test article
[7] = test article 1 and 10 μM, Caco-2 cells
[8] = estimated from two concentrations

T1 sequence (O95342 whole entry): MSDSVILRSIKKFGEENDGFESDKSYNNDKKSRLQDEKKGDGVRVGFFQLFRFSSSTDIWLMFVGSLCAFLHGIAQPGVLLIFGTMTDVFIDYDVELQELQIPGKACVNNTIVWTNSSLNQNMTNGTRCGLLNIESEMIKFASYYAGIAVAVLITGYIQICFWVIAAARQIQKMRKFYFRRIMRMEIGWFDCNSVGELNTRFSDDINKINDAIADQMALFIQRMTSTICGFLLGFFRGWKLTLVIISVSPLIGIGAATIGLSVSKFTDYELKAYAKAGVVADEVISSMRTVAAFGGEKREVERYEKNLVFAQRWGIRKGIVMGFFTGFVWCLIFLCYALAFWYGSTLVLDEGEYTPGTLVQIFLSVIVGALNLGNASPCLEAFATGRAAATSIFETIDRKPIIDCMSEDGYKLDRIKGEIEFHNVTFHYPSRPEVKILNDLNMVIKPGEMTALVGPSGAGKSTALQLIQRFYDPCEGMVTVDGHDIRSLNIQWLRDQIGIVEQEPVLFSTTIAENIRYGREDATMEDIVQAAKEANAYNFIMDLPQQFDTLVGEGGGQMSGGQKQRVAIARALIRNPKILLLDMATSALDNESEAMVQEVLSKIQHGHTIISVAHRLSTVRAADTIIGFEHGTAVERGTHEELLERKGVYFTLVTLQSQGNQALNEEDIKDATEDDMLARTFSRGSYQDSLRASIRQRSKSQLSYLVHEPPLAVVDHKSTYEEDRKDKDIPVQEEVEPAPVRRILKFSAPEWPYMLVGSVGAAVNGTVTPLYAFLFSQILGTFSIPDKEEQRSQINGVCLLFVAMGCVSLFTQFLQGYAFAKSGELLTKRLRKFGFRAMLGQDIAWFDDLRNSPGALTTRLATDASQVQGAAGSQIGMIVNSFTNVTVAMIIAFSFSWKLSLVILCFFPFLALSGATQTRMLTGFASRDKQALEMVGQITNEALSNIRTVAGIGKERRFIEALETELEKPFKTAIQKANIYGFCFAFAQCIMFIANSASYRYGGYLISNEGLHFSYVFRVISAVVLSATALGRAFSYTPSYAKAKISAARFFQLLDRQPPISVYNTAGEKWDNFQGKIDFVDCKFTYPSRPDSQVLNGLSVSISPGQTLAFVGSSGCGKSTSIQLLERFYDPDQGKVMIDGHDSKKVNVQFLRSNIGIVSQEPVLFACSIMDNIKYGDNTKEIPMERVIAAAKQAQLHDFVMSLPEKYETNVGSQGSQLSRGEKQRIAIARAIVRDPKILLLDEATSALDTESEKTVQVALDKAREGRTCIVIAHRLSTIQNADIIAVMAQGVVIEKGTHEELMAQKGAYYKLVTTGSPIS
T2 sequence (Q9Y6L6 whole entry): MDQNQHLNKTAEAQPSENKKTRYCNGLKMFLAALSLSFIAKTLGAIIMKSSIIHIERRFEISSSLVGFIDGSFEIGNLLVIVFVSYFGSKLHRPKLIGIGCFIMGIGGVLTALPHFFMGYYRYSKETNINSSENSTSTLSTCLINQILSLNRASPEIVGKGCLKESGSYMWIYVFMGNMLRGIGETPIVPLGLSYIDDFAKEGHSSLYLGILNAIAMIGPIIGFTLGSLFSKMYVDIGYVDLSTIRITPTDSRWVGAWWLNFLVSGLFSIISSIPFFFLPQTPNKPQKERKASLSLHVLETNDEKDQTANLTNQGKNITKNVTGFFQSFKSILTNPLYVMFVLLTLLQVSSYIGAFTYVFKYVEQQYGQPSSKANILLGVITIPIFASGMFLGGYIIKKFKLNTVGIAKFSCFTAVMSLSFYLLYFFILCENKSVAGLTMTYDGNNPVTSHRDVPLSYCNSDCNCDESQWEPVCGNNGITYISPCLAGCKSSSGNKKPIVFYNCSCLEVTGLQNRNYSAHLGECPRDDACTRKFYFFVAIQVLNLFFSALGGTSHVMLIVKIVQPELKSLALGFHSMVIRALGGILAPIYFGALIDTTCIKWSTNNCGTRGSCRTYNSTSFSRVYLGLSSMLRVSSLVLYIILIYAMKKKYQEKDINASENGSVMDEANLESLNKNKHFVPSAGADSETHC
P-gp, sequence (P08183 whole entry): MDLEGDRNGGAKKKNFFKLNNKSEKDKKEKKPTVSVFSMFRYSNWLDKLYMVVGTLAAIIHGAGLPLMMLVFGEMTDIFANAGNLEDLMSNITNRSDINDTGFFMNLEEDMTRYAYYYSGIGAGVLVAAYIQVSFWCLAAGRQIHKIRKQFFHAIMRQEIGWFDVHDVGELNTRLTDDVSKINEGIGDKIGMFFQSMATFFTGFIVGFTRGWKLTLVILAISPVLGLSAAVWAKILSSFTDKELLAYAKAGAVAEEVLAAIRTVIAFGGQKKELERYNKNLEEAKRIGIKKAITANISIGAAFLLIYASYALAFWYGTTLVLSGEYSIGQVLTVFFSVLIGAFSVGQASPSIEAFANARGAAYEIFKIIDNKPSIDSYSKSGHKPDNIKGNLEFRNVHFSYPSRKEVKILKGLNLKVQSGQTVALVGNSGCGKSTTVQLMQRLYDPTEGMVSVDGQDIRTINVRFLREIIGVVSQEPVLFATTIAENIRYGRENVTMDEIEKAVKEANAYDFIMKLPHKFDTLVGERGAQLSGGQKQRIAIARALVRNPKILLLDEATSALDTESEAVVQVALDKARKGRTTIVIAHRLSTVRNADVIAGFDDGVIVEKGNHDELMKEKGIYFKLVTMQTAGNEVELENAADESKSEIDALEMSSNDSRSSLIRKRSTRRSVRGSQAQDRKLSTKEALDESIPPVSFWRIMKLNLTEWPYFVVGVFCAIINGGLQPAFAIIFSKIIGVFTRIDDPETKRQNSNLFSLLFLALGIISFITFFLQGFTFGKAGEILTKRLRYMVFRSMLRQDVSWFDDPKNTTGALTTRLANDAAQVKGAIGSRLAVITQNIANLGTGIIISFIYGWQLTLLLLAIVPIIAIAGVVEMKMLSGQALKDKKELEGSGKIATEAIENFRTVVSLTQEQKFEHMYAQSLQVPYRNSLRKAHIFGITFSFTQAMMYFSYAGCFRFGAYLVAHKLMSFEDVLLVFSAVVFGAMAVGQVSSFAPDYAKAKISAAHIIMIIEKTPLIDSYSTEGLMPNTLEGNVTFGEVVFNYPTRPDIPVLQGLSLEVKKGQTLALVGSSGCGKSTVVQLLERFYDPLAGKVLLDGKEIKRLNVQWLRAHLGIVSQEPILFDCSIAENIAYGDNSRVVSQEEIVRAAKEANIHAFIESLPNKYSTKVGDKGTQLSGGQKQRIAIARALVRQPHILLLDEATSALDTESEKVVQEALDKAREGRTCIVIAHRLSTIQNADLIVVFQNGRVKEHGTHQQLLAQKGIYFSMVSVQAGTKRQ

Compound | Inhibition of BSEP (BSEP [1]) | Inhibitor of BSEP (BSEP [1]) | Substrate of OATP1B1 (OATP1B1 [2]; 1 and 10 μM) | Substrate of OATP1B1 (OATP1B1 [2]; test article 1 and 10 μM) | Substrate of MATE1 (MATE1 [3]; 1 and 10 μM) | Substrate of MATE1 (MATE1 [3]; test article 1 and 10 μM) | Substrate of P-gp (P-gp; Caco-2, 1 and 10 μM) | Substrate of P-gp (P-gp; [7]) | % of time zero remaining in hepatocyte cultures (human hepatocytes; 4 hours) [%] | % of time zero remaining in hepatocyte cultures (human hepatocytes; 24 hours) [%] | Inducer of CYP3A4 (conclusion) (CYP3A4 mRNA) | Inhibition of OAT1 (OAT1) | Inhibitor of OAT1 (OAT1) | Substrate of BSEP (BSEP [4]) | Inhibition of OAT3 (OAT3) | Inhibitor of OAT3 (OAT3) | Inhibition of MATE1 (MATE1 [5]) | Inhibitor of MATE1 (MATE1 [5]) | potency estimated from few doses (OATP1B1 [6]; [8]) [µM] | Inhibition of OATP1B1 (OATP1B1 [6]) | also measured
O=C(O)Cc1ccccc1 [Phenylacetic acid, phenylacetic acid] | inhibited | Yes | not a substrate | No | not a substrate | No^a | not a substrate | No | ≤ 75.9 | ≤ 2.31 | do not identify phenylacetic acid as an inducer of CYP3A4 | inhibited | Yes | No | did not inhibit | No | did not inhibit | No^a | > 7500 | inhibited | potency estimated from few doses (BSEP [1]; human): < 7500 µM; Uptake activity remaining, OAT1 (OAT1; 750 μM): 35.2%; potency estimated from few doses (OAT1; read-out: Estimated IC50, OAT1, estimated from two concentrations): < 750 µM; Emax, CYP1A2 gene expression (CYP1A2 mRNA; Donor 1): 3.32 fold; Inhibitor of OATP1B1 (OATP1B1 [6]): Yes
tauroursodeoxycholic acid [TUDCA] | inhibited | Yes | not a substrate | No | not a substrate | No | as a substrate | Yes | ≤ 75.9 | ≤ 23.5 | did not meet the classification requirements to be identified as an inducer | did not inhibit | No | Yes | inhibited | Yes | inhibited | Yes | < 50 | inhibited | potency estimated from few doses (BSEP [1]; read-out: Estimated IC50, BSEP, estimated from two concentrations): < 5 µM; % of time zero remaining in hepatocyte cultures (human hepatocytes; 1 hour): ≤ 79.9%; Inducer of CYP1A2 (conclusion) (CYP1A2 mRNA; gene expression and enzyme activity, three donors): did not meet the classification requirements to be identified as an inducer; potency estimated from few doses (OAT3; [8]): > 50 µM; potency estimated from few doses (OAT3; estimated from two doses): > 50 µM; potency estimated from few doses (MATE1 [5]; [8]): > 50 µM; potency estimated from few doses (MATE1 [5]; estimated from two doses): > 50 µM; Uptake activity remaining, OATP1B1 (OATP1B1 [6]; 50 μM): roughly 18%; potency estimated from few doses (OATP1B1 [6]; estimated from two doses): < 50 µM; Inhibitor of OATP1B1 (OATP1B1 [6]): Yes
